This note sets out measurements from patent US11787780B2 (CORCEPT THERAPEUTICS INCORPORATED, priority 2020, dated 2023).

The target in assay [1] is glucocorticoid receptor (GR) recombinant ligand binding domain (LBD) (Homo sapiens (Human), UniProt P04150). Nature of the assay: GR binding fluorescence polarisation (FP) assay. To be noted: displacement of fluorescently tagged ligand. On the procedure:
Binding of test compounds to the glucocorticoid receptor (GR) is determined using a fluorescence polarisation (FP) assay utilising a recombinant ligand binding domain (LBD) of GR. The test compounds are assessed by their ability to displace a fluorescently tagged ligand and detection of the resulting decrease in fluorescence polarisation.
A general note: In fluorescence polarisation assays a small probe gives low polarisation when free and higher when bound to something large.

Assay [2] has as its system induction of TAT by dexamethasone in HepG2 cells. Briefly: Hep G2 TAT assay (inhibition of dexamethasone-induced TAT). The format is cell-based, human. To be noted: challenge of 100 nM dexamethasone, IC50 converted to Ki by Cheng and Prusoff equation.

Each structure is given as a SMILES string.

By IC50 is commonly meant the point on the concentration scale where inhibition reaches its midpoint. By Ki is commonly meant a dissociation constant, usually derived from enzyme kinetics or from competition with a known ligand.

Chain of glucocorticoid receptor (GR) recombinant ligand binding domain (LBD) (P04150 524-758): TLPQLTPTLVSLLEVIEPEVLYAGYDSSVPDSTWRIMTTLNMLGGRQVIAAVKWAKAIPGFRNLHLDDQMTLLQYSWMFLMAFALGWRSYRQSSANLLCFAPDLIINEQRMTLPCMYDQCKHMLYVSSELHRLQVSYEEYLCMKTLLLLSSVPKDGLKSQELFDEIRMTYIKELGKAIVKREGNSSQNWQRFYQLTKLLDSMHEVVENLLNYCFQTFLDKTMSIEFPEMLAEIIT

On to `COc1ccc(S(=O)(=O)N2CCC(Cc3ccccc3)(c3cc4cnn(-c5ccc(=O)n(C)c5)c4cc3C)C2)cn1` (stereo not shown) [Example 306, 5-(5-(3-benzyl-1-((6-methoxypyridin-3-yl)sulfonyl)pyrrolidin-3-yl)-6-methyl-1H-indazol-1-yl)-1-methylpyridin-2(1H)-one], for which the IC50 in assay [1] turned out to be 11 nM. Also, the affinity in assay [2], expressed as Ki, was 56 nM.

Consider `Cc1cc2c(cnn2-c2ccc(F)cc2)cc1C1(Cc2ccccc2)CCN(C(=O)c2cscn2)C1` (stereo not shown) [Example 235], for which the IC50 in assay [1] turned out to be 12 nM. In assay [2], affinity was put at a Ki of 34 nM.

As for `Cc1cc2c(cc1C1(Cc3ccccc3)CCN(S(=O)(=O)c3cnn(C)c3)C1)nnn2-c1ccc(F)cc1` (stereo not shown) [Example 172], the IC50 in assay [1] was determined as 58 nM. In assay [2], this compound displayed an inhibition constant Ki of 83 nM.

`CCCn1cc(S(=O)(=O)N2CCC(Cc3nccs3)(c3cc4cnn(-c5ccc(F)cc5)c4cc3C)C2)cn1` (stereo not shown) [Example 189]: in assay [1], the IC50 was determined as 11 nM. The same compound yielded a Ki in assay [2] of 91 nM.

As for `Cc1cc2c(cnn2-c2cccc(C(=O)NC3CCOC3)c2)cc1N1CCN(S(C)(=O)=O)C2(CC2)C1` (stereo not shown) [Example 85], the IC50 in assay [1] was 163 nM. Besides, in assay [2], the affinity, expressed as Ki, was 1420 nM.

As to `CCCn1cc(S(=O)(=O)N2CCN(c3ccc4c(cnn4-c4ccc(F)cc4)c3)CC23CC3)cn1` [Example 50], in assay [1], the IC50 is 27 nM. This compound also registered a Ki in assay [2] of 480 nM.

For `CCCn1cc(S(=O)(=O)N2CC=C(c3cc4cnn(-c5ccc(F)cc5)c4cc3C(C)C)CC2)cn1` [Example 141], in assay [1], the IC50 was 4220 nM. For the same compound, the Ki in assay [2] amounted to 487 nM.

In the case of `Cc1cc2c(cnn2-c2ccc(F)cc2)cc1C1(Cc2ccccn2)CCN(S(=O)(=O)c2cnn(C)c2)C1` (stereo not shown) [Example 151], the IC50 in assay [1] was 17 nM. The compound also came in with a Ki in assay [2] of 161 nM.

In the case of `Cc1cc2c(cnn2-c2ccc(=O)n(C)c2)cc1C1(Cc2ccccc2)CCN(C(=O)C2CC2C)C1` (stereo not shown) [Example 331, 5-(5-(3-benzyl-1-(2-methylcyclopropane-1-carbonyl)pyrrolidin-3-yl)-6-methyl-1H-indazol-1-yl)-1-methylpyridin-2(1H)-one], the IC50 in assay [1] turned out to be 15 nM. The compound also displayed a Ki in assay [2] of 100 nM.

Take `Cc1cc2c(cnn2-c2ccc(=O)n(C)c2)cc1C1(Cc2ccccc2)CCN(S(=O)(=O)c2c(F)cccc2F)C1` (stereo not shown) [Example 315, 5-(5-(3-benzyl-1-((2,6-difluorophenyl)sulfonyl)pyrrolidin-3-yl)-6-methyl-1H-indazol-1-yl)-1-methylpyridin-2(1H)-one]: the IC50 in assay [1] came to 6.7 nM. In addition, the affinity in assay [2] corresponds to a Ki of 29 nM.

Regarding `Cc1cc2c(cnn2-c2ccc(=O)n(C)c2)cc1C1(Cc2ccccc2)CCN(C(=O)c2ccccc2)C1` (stereo not shown) [Example 326, 5-(5-(1-benzoyl-3-benzylpyrrolidin-3-yl)-6-methyl-1H-indazol-1-yl)-1-methylpyridin-2(1H)-one], in assay [1], the IC50 was determined as 44 nM. Besides, the Ki in assay [2] was determined as 57 nM.

On to `COc1cc2c(cnn2-c2ccc(F)c(C#N)c2)cc1C1(Cc2ccccc2)CCN(S(=O)(=O)c2cnn(C)n2)C1` (stereo not shown) [Example 243, 5-(5-(3-benzyl-1-((2-methyl-2H-1,2,3-triazol-4-yl)sulfonyl)pyrrolidin-3-yl)-6-methoxy-1H-indazol-1-yl)-2-fluorobenzonitrile], for which the IC50 in assay [1] worked out at 65 nM. Further, in assay [2], the Ki was 38 nM.

For the compound `Cc1cc2c(cnn2-c2ccc(F)cc2)cc1C1(Cc2ccc(C(F)(F)F)nc2)CCN(S(=O)(=O)c2cnn(C)c2)C1` (stereo not shown) [Example 170], in assay [1], the IC50 is 123 nM. This compound gave a Ki in assay [2] of 104 nM.

For the compound `Cc1cc2c(cnn2-c2ccc(=O)n(C)c2)cc1C1(Cc2ccccc2)CCN(S(=O)(=O)c2cn(C)nn2)C1` (stereo not shown) [Example 275, 5-(5-(3-benzyl-1-((1-methyl-1H-1,2,3-triazol-4-yl)sulfonyl)pyrrolidin-3-yl)-6-methyl-1H-indazol-1-yl)-1-methylpyridin-2(1H)-one], the IC50 in assay [1] came out at 18 nM. The Ki in assay [2] came out at 70 nM.

Take `COc1nn(C)cc1-n1ncc2cc(C3(Cc4ccccc4)CCN(S(=O)(=O)c4cnn(C)n4)C3)c(C)cc21` (stereo not shown) [Example 251, 5-(3-benzyl-1-((2-methyl-2H-1,2,3-triazol-4-yl)sulfonyl)pyrrolidin-3-yl)-1-(3-methoxy-1-methyl-1H-pyrazol-4-yl)-6-methyl-1H-indazole]: in assay [1], the IC50 came to 27 nM. In assay [2], this compound displayed a Ki of 180 nM.

With `Cc1cc2c(cnn2-c2ccc(F)cc2)cc1C1(Cc2cccc(C(F)(F)F)c2)CCN(S(=O)(=O)c2cnn(C)c2)C1` (stereo not shown) [Example 176], in assay [1], the IC50 stood at 60 nM. The compound further yielded a Ki in assay [2] of 33 nM.

For the compound `COCC1(c2cc3cnn(-c4ccc(F)cc4)c3cc2C)CCN(S(=O)(=O)c2cnn(C)c2)C1` (stereo not shown) [Example 340, 1-(4-fluorophenyl)-5-(3-(methoxymethyl)-1-((1-methyl-1H-pyrazol-4-yl)sulfonyl)pyrrolidin-3-yl)-6-methyl-1H-indazole], in assay [1], the IC50 is 57 nM. Also, the affinity in assay [2] corresponds to a Ki of 820 nM.

For `Cc1cc2c(cnn2-c2ccc(=O)n(C)c2)cc1C1(Cc2ccc(F)cc2)CCN(S(=O)(=O)c2cnn(C)n2)C1` (stereo not shown) [Example 324, 5-(5-(3-(4-fluorobenzyl)-1-((2-methyl-2H-1,2,3-triazol-4-yl)sulfonyl)pyrrolidin-3-yl)-6-methyl-1H-indazol-1-yl)-1-methylpyridin-2(1H)-one], the IC50 in assay [1] amounted to 7.5 nM. Further, the Ki in assay [2] was 64 nM.

In the case of `[2H]C([2H])([2H])n1ncc(S(=O)(=O)N2CCC(Cc3ccccc3)(c3cc4cnn(-c5ccc(=O)n(C)c5)c4cc3C)C2)n1` (stereo not shown) [Example 296, 5-(5-(3-benzyl-1-((2-(methyl-d3)-2H-1,2,3-triazol-4-yl)sulfonyl)pyrrolidin-3-yl)-6-methyl-1H-indazol-1-yl)-1-methylpyridin-2(1H)-one], the IC50 in assay [1] turned out to be 6.9 nM. Moreover, the Ki in assay [2] stood at 44 nM.

On to `Cc1cc2c(cnn2-c2cnn(C(F)(F)F)c2)cc1C1(Cc2ccccc2)CCN(S(=O)(=O)c2cnn(C)n2)C1` (stereo not shown) [Example 254, 5-(3-benzyl-1-((2-methyl-2H-1,2,3-triazol-4-yl)sulfonyl)pyrrolidin-3-yl)-6-methyl-1-(1-(trifluoromethyl)-1H-pyrazol-4-yl)-1H-indazole], for which the IC50 in assay [1] was found to be 87 nM. The same compound gave an inhibition constant Ki in assay [2] of 44 nM.

`CCCn1cc(S(=O)(=O)N2CC=C(c3cc4cnn(-c5ccc(F)cc5)c4cc3OC(F)F)CC2)cn1` [Example 144]: the IC50 in assay [1] amounted to 265 nM. Moreover, the Ki in assay [2] is 180 nM.

With `Cc1cc2c(cnn2-c2ccc(=O)n(C)c2)cc1C1(Cc2ccccc2)CCN(S(=O)(=O)c2ccc(F)cc2F)C1` (stereo not shown) [Example 314, 5-(5-(3-benzyl-1-((2,4-difluorophenyl)sulfonyl)pyrrolidin-3-yl)-6-methyl-1H-indazol-1-yl)-1-methylpyridin-2(1H)-one], in assay [1], the IC50 came to 11 nM. Further, the Ki in assay [2] was 56 nM.

Turning to `Cc1cc2c(cnn2-c2cn(C)nc2C)cc1C1(Cc2ccccc2)CCN(S(=O)(=O)c2cnn(C)n2)C1` (stereo not shown) [Example 257, 5-(3-benzyl-1-((2-methyl-2H-1,2,3-triazol-4-yl)sulfonyl)pyrrolidin-3-yl)-1-(1,3-dimethyl-1H-pyrazol-4-yl)-6-methyl-1H-indazole], the IC50 in assay [1] worked out at 52 nM. The Ki in assay [2] worked out at 220 nM.

As to `Cc1cc2c(cnn2-c2ccc(F)cc2)cc1C1(Cc2ccc(C(F)(F)F)cc2)CCN(S(=O)(=O)c2cnn(C)c2)C1` (stereo not shown) [Example 178], the IC50 in assay [1] is 197 nM. The compound further displayed a Ki in assay [2] of 30 nM.

On to `Cc1cc2c(cnn2-c2ccc(F)cc2)cc1C1(Cc2ccccc2)CCN(S(C)(=O)=O)C1=O` (stereo not shown) [Example 339, 3-benzyl-3-(1-(4-fluorophenyl)-6-methyl-1H-indazol-5-yl)-1-(methylsulfonyl)pyrrolidin-2-one], for which, in assay [1], the IC50 turned out to be 44 nM. In addition, the affinity in assay [2], expressed as Ki, was 120 nM.

For `CC(C)c1cc2c(cnn2-c2ccc(F)cc2)cc1C1(Cc2ccccc2)CCN(S(=O)(=O)c2cnn(C)c2)C1` (stereo not shown) [Example 164], the IC50 in assay [1] was 189 nM. Moreover, in assay [2], the affinity, expressed as Ki, was 89 nM.

Take `Cc1cc2c(cnn2-c2ccc(=O)n(C)c2)cc1C1(Cc2ccccc2)CCN(S(=O)(=O)c2ccc(Cl)cc2)C1` (stereo not shown) [Example 305, 5-(5-(3-benzyl-1-((4-chlorophenyl)sulfonyl)pyrrolidin-3-yl)-6-methyl-1H-indazol-1-yl)-1-methylpyridin-2(1H)-one]: the IC50 in assay [1] was 3 nM. In addition, the Ki in assay [2] worked out at 32 nM.

Turning to `Cc1cc2c(cnn2-c2ccc(=O)n(C)c2)cc1C1(Cc2ccccc2)CCN(S(=O)(=O)c2cccc(F)c2)C1` (stereo not shown) [Example 302, 5-(5-(3-benzyl-1-((3-fluorophenyl)sulfonyl)pyrrolidin-3-yl)-6-methyl-1H-indazol-1-yl)-1-methylpyridin-2(1H)-one], in assay [1], the IC50 was determined as 12 nM. Also, the Ki in assay [2] was 27 nM.

As for `CCCn1cc(S(=O)(=O)N2CCC(CC)(c3cc4cnn(-c5ccc(F)cc5)c4cc3C)C2)cn1` (stereo not shown) [Example 168], the IC50 in assay [1] came to 6 nM. Further, affinity in assay [2] was put at a Ki of 67 nM.

For `CCCn1cc(S(=O)(=O)N2CC[C@](Cc3ccccc3)(c3cc4cnn(-c5ccc(F)cc5)c4cc3C)C2)cn1` [Example 18, (R)-5-(3-benzyl-1-((1-propyl-1H-pyrazol-4-yl)sulfonyl)pyrrolidin-3-yl)-1-(4-fluorophenyl)-6-methyl-1H-indazole], the IC50 in assay [1] stood at 24 nM. This compound registered a Ki in assay [2] of 9 nM.

Turning to `Cc1cc2c(cnn2-c2ccc(=O)n(C)c2)cc1C1(Cc2ccccc2)CCN(S(=O)(=O)c2ccc(C#N)cc2)C1` (stereo not shown) [Example 308, 4-((3-benzyl-3-(6-methyl-1-(1-methyl-6-oxo-1,6-dihydropyridin-3-yl)-1H-indazol-5-yl)pyrrolidin-1-yl)sulfonyl)benzonitrile], the IC50 in assay [1] is 14 nM. The compound further came in with an inhibition constant (Ki) in assay [2] of 62 nM.

In the case of `Cc1ccc(S(=O)(=O)N2CCC(Cc3ccccc3)(c3cc4cnn(-c5ccc(=O)n(C)c5)c4cc3C)C2)cc1` (stereo not shown) [Example 307, 5-(5-(3-benzyl-1-tosylpyrrolidin-3-yl)-6-methyl-1H-indazol-1-yl)-1-methylpyridin-2(1H)-one], the IC50 in assay [1] was 8.8 nM. This compound displayed a Ki in assay [2] of 89 nM.
